Like-named read-outs stand apart in the source and are kept apart here. Each block holds one compound with its values, some of them ahead of it.
Experiments:
H1563 = H1563 cell line viability (Cell Titer Glo); assay type: cell-based; conditions: Homo sapiens, NCI-H1563; n = 2; read-out: Potency (EC50) H1563
Protocol: (§1) Compounds as shown were tested against various cells lines in vitro according to the methods described herein. Cells are plated in 384-well format in a total volume of 40 μl. Indicated compound concentrations were added 24 hrs after plating the cells. After 48 hrs cell viability was determined using Cell Titer Glo® Luminescent Cell Viability Assay.

A549 cells = assay: A549 Cytotoxicity Assay (Cell Titer Glo viability); assay type: cell-based
Protocol: (§2) A549 Cytotoxicity Assay Protocol. Day 0: A549 cells (ATCC, A549 CCL-185) are grown to 95% confluence in RPMI, 10% FBS/Pen/Strep/L-Glutamine. Day 1: Plate cells (1000 per well) in 40 μl culturing media using Corning 384-well plates (3570), incubate in standard TC conditions (5% CO2, 95% humidity, 37° C.) for 24 h. Day 2: Dilute each concentration of a half-log serial dilution of compound (1 mM-100 nM) 1:200 in culturing media and add […] (50 μl total volume) of that dilution to designated wells (8 replicates per concentration). The final dilution will be 1000×([…]). Day 4: Remove plate from incubator to cool for 20 minutes to room temperature. Add 40 μl of a 25% Promega Cell Titer Glo solution (diluted 1:3 with room temperature PBS) with Thermo combi or multichannel and incubate for 10 min. Read on Perkin-Elmer EnVision with US LUM settings for 0.1 second per well.
A549 Assay Protocol. Day 0: A549 cells (ATCC) are grown in a Triple flask (NUNC) to ˜95% confluence (TrypLE Phenol Red free) and resuspended for dispensing at 25,000 cells/mL of DMEM, 10% FBS/Pen/Strep/L-Glutamine (using the TAP Compact SelecT automated cell culture system). Day 1: Plate cells at 1000 per well in 40 uL media (DMEM/10% FBS/Pen/Strep/L-Glutamine) using Corning 8867BC 384 well plates; incubate in standard TC conditions (5% CO2; 95% humidity, 37° C.) for 24 hours (Compact SelecT). Day 2: Add 100 nL compound per well at dose into 40 uL assay volume using a pin tool (CyBi Well). Pin 100 nL cytotoxic compounds, mitoxantrone (CID 4212) to positive control wells to a final concentration of 10 μM (100 nL 4 mM DMSO stock). Incubate for […] at 37° C. in Liconic incubator, 95% humidity 5% CO2. Day 4: Remove plate from incubator, cool for 15 minutes to room temperature; add 20 μL 50% Promega CellTiterGlo (diluted 1:1 with PBS, pH 7.4) with Thermo Combi. Incubate at room temperature for 5 minutes. Read plates on Perkin-Elmer EnVision with standard luminescence settings for 0.1 sec per well.
as §1
as §1, with “Known PDE3 inhibitors” for “Compounds”, “shown below” for “shown”

HeLa cells = assay: HeLa Cytotoxicity Assay (Cell Titer Glo viability); assay type: cell-based; conditions: Homo sapiens, HeLa
Protocol: HeLa Cytotoxicity Assay Protocol: Day 0: HeLa cells (ATCC, HeLa CCL-2) are grown to 95% confluence in DMEM, 10% FBS/Pen/Strep/L-Glutamine. Day 1: Plate cells (1000 per well) in 40 μl culturing media using Corning 384-well plates (3570), incubate in standard TC conditions (5% CO2, 95% humidity, 37 degrees C.) for 24 hours. Day 2: Dilute each concentration of a half-log serial dilution of compound (1 mM-100 nM) 1:200 in culturing media and add 10 μl (50 μl total volume) of that dilution to designated wells (8 replicates per concentration). The final dilution will be 1000×(1 μM-100 pM). Day 4: Remove plate from incubator to cool for 20 minutes to room temperature. Add 40 μl of a 25% Promega Cell Titer Glo solution (diluted 1:3 with room temperature PBS) with Thermo combi or multichannel and incubate for 10 minutes. Read on Perkin-Elmer EnVision with US LUM settings for 0.1 second per well.
as §1
as §1, with “Known PDE3 inhibitors” for “Compounds”, “shown below” for “shown”

PDE3 = conditions: reference value; read-out: PDE3 activity (ref); cited from earlier work
COLO741 cells = assay: COLO741 Assay (Cell Titer Glo viability); assay type: cell-based; conditions: Homo sapiens, COLO-741, Example 18; Mean ± SD (n = 3); read-out: Potency (EC50 nM) COLO741
Protocol: as §2, with “C0L0741” for “A549 Cytotoxicity”, “C0L0741” for “A549”, “(ECACC, C0L0741 93052621)” for “(ATCC, A549 CCL-185)”, “(1500” for “(1000”, “minutes.” for “min.”
as §1

H2122 cells = assay: H2122 Assay (Cell Titer Glo viability); assay type: cell-based; conditions: Homo sapiens
Protocol: Selective toxicity in cell line panel. H2122 Assay Protocol Day 0: H2122 cells (ATCC, H2122 CCL-5985) are grown to 95% confluence in RPMI, 10% FBS/Pen/Strep/L-Glutamine. Day 1: Plate cells (750 per well) in 40 μl culturing media using Corning 384-well plates (3570), incubate in standard TC conditions (5% CO2, 95% humidity, 37 degrees C.) for 24 h. Day 2: Dilute each concentration of a half-log serial dilution of compound (1 mM-100 nM) 1:200 in culturing media and add 10 μl (50 μl total volume) of that dilution to designated wells (8 replicates per concentration). The final dilution will be 1000×([…]). Day 4: Remove plate from incubator to cool for 20 minutes to room temperature. Add 40 μl of a 25% Promega Cell Titer Glo solution (diluted 1:3 with room temperature PBS) with Thermo combi or multichannel and incubate for 10 minutes. Read on Perkin-Elmer EnVision with US LUM settings for 0.1 second per well.
as §1

[1] = Homo sapiens, A549, n = 2, read-out: Potency (EC50) A549
[2] = known PDE3 inhibitors, Mean (n = 3), read-out: Potency (EC50 nM) HeLa
[3] = Homo sapiens, A549, known PDE3 inhibitors, Mean (n = 3), read-out: Potency (EC50 nM) A549
[4] = Example 18, Mean ± SD (n = 3), read-out: Potency (EC50 nM) HeLa
[5] = NCI-H2122, Example 18, Mean ± SD (n = 3), read-out: Potency (EC50 nM) H2122

Structure (SMILES): CC1CC(=O)NN=C1c1ccc(N(C)C)c([N+](=O)[O-])c1 (centres unmarked)
- EC50 (H1563): 40 nM
- EC50 (A549 cells; [1]): > 10000 nM

Structure (SMILES): CC1CC(=O)NN=C1c1ccc(N)c(N)c1 (centres unmarked)
- EC50 (H1563): > 10000 nM
- EC50 (A549 cells; [1]): > 10000 nM

Structure (SMILES): CC1CC(=O)NN=C1c1ccc(N)cc1 (centres unmarked)
- EC50 (H1563): > 10000 nM
- EC50 (A549 cells; [1]): > 10000 nM

Structure (SMILES): CN/C(=N\c1ccc(C2=NNC(=O)CC2C)cc1)NC#N (centres unmarked) [Siguazodan, reference compound]
- EC50 (HeLa cells; [2]): > 10000 nM
- IC50 (PDE3): 117 nM
- EC50 (A549 cells; [3]): > 10000 nM

Structure (SMILES): CCN(CC)c1ccc(C(=O)O)cc1[N+](=O)[O-]
- EC50 (H1563): > 10000 nM
- EC50 (A549 cells; [1]): > 10000 nM

Structure (SMILES): Cc1[nH]c(=O)c(C#N)cc1-c1ccncc1 [Millrinone, reference compound]
- EC50 (HeLa cells; [2]): > 10000 nM
- IC50 (PDE3): 56 nM
- EC50 (A549 cells; [3]): > 10000 nM

Structure (SMILES): CC(=O)Nc1ccc(C2=NNC(=O)C[C@H]2C)cc1 [OR-1896, reference compound]
- EC50 (HeLa cells; [2]): > 10000 nM
- IC50 (PDE3): 94 nM
- EC50 (A549 cells; known PDE3 inhibitors, Mean (n = 3), read-out: Potency (EC50 nM) A549): > 10000 nM

Structure (SMILES): O=C1CCC(c2ccccc2)=NN1
- EC50 (H1563): > 10000 nM
- EC50 (A549 cells; [1]): > 10000 nM

Structure (SMILES): C[C@@H]1CC(=O)NN=C1c1ccc(NN=C(C#N)C#N)cc1 [Levosimendan, reference compound]
- EC50 (HeLa cells; [2]): > 10000 nM
- IC50 (PDE3): 2.4 nM
- EC50 (A549 cells; [3]): > 10000 nM

Structure (SMILES): C[C@@H]1CC(=O)NN=C1c1ccc(N)cc1
- EC50 (H1563): > 10000 nM
- EC50 (A549 cells; [1]): > 10000 nM

More lines, main results first:

- EC50 (COLO741 cells): 20.2 ± 4.8 nM
- EC50 (H2122 cells; [5]): 31.4 ± 10.8 nM
Structure (SMILES): C[C@@H]1CC(=O)NN=C1c1ccc(N2CCOCC2)cc1 [drawing 218]
- EC50 (HeLa cells; [4]): 13.1 ± 1.9 nM

- EC50 (H1563): > 10000 nM
Structure (SMILES): CN/C(=N\c1ccc(C2=NNC(=O)CC2C)cc1)NC#N (centres unmarked) [drawing 237]
- EC50 (A549 cells; [1]): > 10000 nM

- EC50 (COLO741 cells): 33.2 ± 14.1 nM
- EC50 (H2122 cells; [5]): 47.7 ± 14.1 nM
Structure (SMILES): C[C@@H]1CC(=O)NN=C1c1ccc(F)c(F)c1 [drawing 220]
- EC50 (HeLa cells; [4]): 22.3 ± 4.5 nM

- EC50 (COLO741 cells): 19.8 ± 1.8 nM
- EC50 (H2122 cells; [5]): 37.8 ± 12.3 nM
Structure (SMILES): C[C@@H]1CC(=O)NN=C1c1ccc(-c2cncnc2)cc1 [drawing 219]
- EC50 (HeLa cells; [4]): 12.7 ± 2.2 nM

- EC50 (COLO741 cells): 12 ± 1.3 nM
- EC50 (H2122 cells; [5]): 13.7 ± 2.8 nM
Structure (SMILES): CCN(CC)c1ccc(C2=NNC(=O)CC2C)cc1[N+](=O)[O-] (centres unmarked) [drawing 215]

- EC50 (H1563): 12 nM
- EC50 (H2122 cells; NCI-H2122, n = 2, read-out: Potency (EC50) H2122): 12 nM
Structure (SMILES): CCN(CC)c1ccc(C2=NNC(=O)CC2C)cc1[N+](=O)[O-] (centres unmarked) [drawing 226]
- EC50 (HeLa cells; n = 2, read-out: Potency (EC50) HeLa): 4 nM
- EC50 (A549 cells; [1]): > 10000 nM

- EC50 (COLO741 cells): 3.1 ± 0.6 nM
- EC50 (H2122 cells; [5]): 3.2 ± 1.1 nM
Structure (SMILES): C[C@@H]1CC(=O)NN=C1c1ccc(N2CCOCC2)c(F)c1 [drawing 217]
- EC50 (HeLa cells; [4]): 1.6 ± 0.2 nM

Reference: US20180244629A1, “Compounds And Compositions For The Treatment Of Cancer” (The Broad Institute, Inc., priority 2013, published 2018)
